Source: US9078909B2, “Tertiary amines, medicaments containing said amines, use thereof and processes for the preparation thereof” (Boehringer Ingelheim International GmbH, priority 2012, dated 2015)

Molecular target: T1, epithelial sodium channel (ENaC) (Mus musculus, UniProt Q61180+Q9WU38+Q9WU39)
T1 construct: Mouse kidney M-1 cells were cultivated in DMEM; endogenous in cells; host or cells: mouse kidney M-1 cells (cortical collecting duct line), dexamethasone-treated, on transwell filters
T1 sequence (Q61180 1-699): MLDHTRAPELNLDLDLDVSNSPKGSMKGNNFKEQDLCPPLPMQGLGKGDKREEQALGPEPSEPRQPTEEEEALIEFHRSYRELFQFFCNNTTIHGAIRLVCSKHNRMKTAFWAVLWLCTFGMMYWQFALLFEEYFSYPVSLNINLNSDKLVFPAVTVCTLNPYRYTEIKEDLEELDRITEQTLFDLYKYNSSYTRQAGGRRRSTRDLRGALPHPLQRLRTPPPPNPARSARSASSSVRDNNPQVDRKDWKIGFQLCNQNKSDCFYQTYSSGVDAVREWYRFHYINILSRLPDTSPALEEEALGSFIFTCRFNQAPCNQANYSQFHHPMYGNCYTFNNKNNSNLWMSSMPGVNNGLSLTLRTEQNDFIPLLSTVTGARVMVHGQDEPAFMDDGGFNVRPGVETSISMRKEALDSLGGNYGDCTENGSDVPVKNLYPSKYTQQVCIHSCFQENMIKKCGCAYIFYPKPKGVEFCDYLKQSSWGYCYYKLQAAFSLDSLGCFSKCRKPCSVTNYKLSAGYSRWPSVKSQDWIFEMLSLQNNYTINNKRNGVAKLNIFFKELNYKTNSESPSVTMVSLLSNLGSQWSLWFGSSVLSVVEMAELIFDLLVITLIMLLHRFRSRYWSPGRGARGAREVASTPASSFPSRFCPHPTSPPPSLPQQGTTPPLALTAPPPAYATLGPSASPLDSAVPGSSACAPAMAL
T1 sequence (Q9WU38 1-638): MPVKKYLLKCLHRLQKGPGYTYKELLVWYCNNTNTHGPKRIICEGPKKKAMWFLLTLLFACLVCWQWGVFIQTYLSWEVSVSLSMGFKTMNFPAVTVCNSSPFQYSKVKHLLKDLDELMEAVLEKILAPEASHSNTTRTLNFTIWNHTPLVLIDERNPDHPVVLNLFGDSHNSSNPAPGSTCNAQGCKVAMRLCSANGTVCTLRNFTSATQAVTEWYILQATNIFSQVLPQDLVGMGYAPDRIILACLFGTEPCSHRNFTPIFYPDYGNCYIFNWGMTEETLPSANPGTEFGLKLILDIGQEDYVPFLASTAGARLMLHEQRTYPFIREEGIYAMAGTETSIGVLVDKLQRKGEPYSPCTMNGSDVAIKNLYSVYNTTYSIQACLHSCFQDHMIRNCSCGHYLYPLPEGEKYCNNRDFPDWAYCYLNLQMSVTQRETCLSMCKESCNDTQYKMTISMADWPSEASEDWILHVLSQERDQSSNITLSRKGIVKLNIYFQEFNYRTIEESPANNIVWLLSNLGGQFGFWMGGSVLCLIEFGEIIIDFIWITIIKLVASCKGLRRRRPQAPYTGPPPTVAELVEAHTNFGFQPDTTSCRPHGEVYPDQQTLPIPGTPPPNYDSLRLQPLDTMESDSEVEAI
T1 sequence (Q9WU39 1-655): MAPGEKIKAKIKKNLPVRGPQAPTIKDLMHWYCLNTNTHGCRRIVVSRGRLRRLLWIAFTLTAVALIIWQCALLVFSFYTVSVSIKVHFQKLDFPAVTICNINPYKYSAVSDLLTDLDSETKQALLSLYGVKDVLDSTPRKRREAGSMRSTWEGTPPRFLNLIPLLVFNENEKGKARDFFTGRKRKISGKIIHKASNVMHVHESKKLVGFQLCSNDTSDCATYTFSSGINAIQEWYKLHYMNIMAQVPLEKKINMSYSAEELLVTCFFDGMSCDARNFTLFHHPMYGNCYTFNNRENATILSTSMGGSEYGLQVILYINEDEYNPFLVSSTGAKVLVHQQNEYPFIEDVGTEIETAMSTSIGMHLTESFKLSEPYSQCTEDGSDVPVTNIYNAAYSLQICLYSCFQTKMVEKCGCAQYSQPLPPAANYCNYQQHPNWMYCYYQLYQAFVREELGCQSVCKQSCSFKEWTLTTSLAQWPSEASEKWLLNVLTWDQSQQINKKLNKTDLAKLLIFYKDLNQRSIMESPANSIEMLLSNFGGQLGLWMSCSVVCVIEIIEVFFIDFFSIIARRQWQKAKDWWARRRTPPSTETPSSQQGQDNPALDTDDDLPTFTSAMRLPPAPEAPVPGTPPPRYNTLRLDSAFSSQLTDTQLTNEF
Experiment: Ussing Chamber assay: inhibition of amiloride sensitive short circuit current (I_sc) in M-1 cells
Type: cell-based
Conditions: Ussing Chamber; mouse kidney M-1 cells on transwell filters; short circuit current; compound added to apical solution; 37° C.; read-out: IC50
Description: Ussing Chamber: Mouse kidney M-1 cells were cultivated in DMEM containing 5% FCS and 5 μM dexamethasone for 10 to 12 days on polyester transwell filters. Filters were inserted into a teflon-coated well-plate which fit into the in-house ussing chamber system. Prior to measurement the medium of M-1 cells was replaced with Caco-2 transport buffer (Invitrogen, Germany). During measurements, the Ussing chamber temperature was kept at 37° C. Short circuit currents (I_sc) were measured in the voltage-clamp mode using an in-house built amplifier (Boehringer Ingelheim, Biberach) with the software package Lab View for data acquisition and analysis. The transepithelial electrical resistance (TEER) was determined by the application of voltage steps of ±5 mV every 5 sec. Compounds were administered at a final concentration of 3 μM or at increasing concentrations (e.g. 1-3-10 μM) to the apical solution. At the end of each experiment the amiloride sensitive I_SC was measured by adding 3 μM amiloride to the apical compartment. Results are expressed as inhibition in percent of the amiloride effect or as IC50.
With the example compounds given above, the following IC50 values were determined in the Ussing Chamber assay: […]

IC50 [nM] | SMILES
6 | NC(=NC(=O)c1nc(Cl)c(N)nc1N)NC1CCN(CC(=O)OCc2ccccc2)CC1 [Example 4.9]
55 | COCCOCCOCCOCCN1CCC(NC(N)=NC(=O)c2nc(Cl)c(N)nc2N)CC1 [Example 4.12]
10 | CCSCCN1CCC(NC(N)=NC(=O)c2nc(Cl)c(N)nc2N)CC1 [Example 4.2]
72 | CN1CCC(CN2CCC(NC(N)=NC(=O)c3nc(Cl)c(N)nc3N)CC2)CC1 [Example 4.17]
36 | CCN(CC)C(=O)CN1CCC(NC(N)=NC(=O)c2nc(Cl)c(N)nc2N)CC1 [Example 4.5]
3 | NC(=NC(=O)c1nc(Cl)c(N)nc1N)NC1CCN(CC(=O)NCc2ccc(N3CCNC3=O)cc2)CC1 [Example 6.13]
1 | NC(=NC(=O)c1nc(Cl)c(N)nc1N)NC1CCN(CC(=O)NCc2ccccc2SC(F)(F)F)CC1 [Example 6.3]
147 | NC(=NC(=O)c1nc(Cl)c(N)nc1N)NC1CCN(CCCS(=O)(=O)O)CC1 [Example 4.23]
6 | COC(=O)c1cccc(CNC(=O)CN2CCC(NC(N)=NC(=O)c3nc(Cl)c(N)nc3N)CC2)c1 [Example 6.5]
169 | NC(=NC(=O)c1nc(Cl)c(N)nc1N)NC1CCN(CCCC(=O)O)CC1 [Example 5.3]
30 | NC(=NC(=O)c1nc(Cl)c(N)nc1N)NC1CCN(CC2CCCC2)CC1 [Example 4.13]
27 | COC(=O)CN1CCC(NC(N)=NC(=O)c2nc(Cl)c(N)nc2N)CC1 [Example 4.11]
4 | CC(C)(C)NC(=O)CN1CCC(NC(N)=NC(=O)c2nc(Cl)c(N)nc2N)CC1 [Example 4.22]
3 | COC(=O)c1ccc(CNC(=O)CN2CCC(NC(N)=NC(=O)c3nc(Cl)c(N)nc3N)CC2)cc1 [Example 6.4]
19 | CN(C)CCNC(=O)c1ccccc1NC(=O)CN1CCC(NC(=N)NC(=O)c2nc(Cl)c(N)nc2N)CC1 [Example 3.1]
2 | COCCNC(=O)CN1CCC(NC(N)=NC(=O)c2nc(Cl)c(N)nc2N)CC1 [Example 6.12]

The remaining lines, values behind:

SMILES | IC50 [nM]
CS(=O)(=O)c1ccc(CNC(=O)CN2CCC(NC(N)=NC(=O)c3nc(Cl)c(N)nc3N)CC2)cc1 [Example 1.25] | 3
NC(=O)c1ccc(NC(=O)CN2CCC(NC(N)=NC(=O)c3nc(Cl)c(N)nc3N)CC2)cc1 [Example 1.2] | 2
CN(C)CCN(c1ccc(NC(=O)CN2CCC(NC(N)=NC(=O)c3nc(Cl)c(N)nc3N)CC2)cc1)S(C)(=O)=O [Example 1.14] | 1
Cn1ccc(NC(=O)CN2CCC(NC(N)=NC(=O)c3nc(Cl)c(N)nc3N)CC2)cc1=O [Example 1.15] | 4
CCOC(=O)c1cccc(CCNC(=O)CN2CCC(NC(N)=NC(=O)c3nc(Cl)c(N)nc3N)CC2)c1 [Example 1.34] | 4
NC(=NC(=O)c1nc(Cl)c(N)nc1N)NC1CCN(CC(=O)Nc2cccc(CN3CCOCC3)c2)CC1 [Example 1.9] | 1
CN(C(=O)CN1CCC(NC(N)=NC(=O)c2nc(Cl)c(N)nc2N)CC1)c1ccccc1 [Example 1.22] | 22
CCN(CC)CCOc1ccc(NC(=O)CN2CCC(NC(N)=NC(=O)c3nc(Cl)c(N)nc3N)CC2)cc1 [Example 1.12] | 2
Cc1ccc(CNC(=O)CN2CCC(NC(N)=NC(=O)c3nc(Cl)c(N)nc3N)CC2)o1 [Example 1.27] | 4
NC(=NC(=O)c1nc(Cl)c(N)nc1N)NC1CCN(CC(=O)Nc2cccc(S(=O)(=O)O)c2)CC1 [Example 1.20] | 17
NC(=NC(=O)c1nc(Cl)c(N)nc1N)NC1CCN(CC(=O)Nc2ccc(S(=O)(=O)O)cc2)CC1 [Example 1.13] | 23
